Laboratory results: publication PMC8123395, “Aggregation and Its Influence on the Bioactivities of a Novel Antimicrobial Peptide, Temporin-PF, and Its Analogues” (International Journal of Molecular Sciences, 2021)
No end group written: not given here.

How the values were obtained:
S. aureus (NCTC 10788) = experiment: SYTOX Green stain uptake assay (membrane permeabilization); format: cell-based; settings: peptide 10 µM, within 120 min, 37 °C, relative to 70% isopropanol-treated cells, three replicates
Experimental: Figure 10 Membrane permeabilization effect of TPF and the analogs (10 µM) on Gram-positive bacteria S. aureus was indicated by the uptake of SYTOX Green dye over 120 min. The error bar represents SD of three replicates.
A membrane permeability assay was conducted on S. aureus (NCTC 10788) and E.coli (NCTC 10418) using the SYTOX™ Green Nucleic Acid Stain (Thermo Fisher Scientific, Waltham, MA, USA) as described previously, with some modifications. For S. aureus, to obtain the fluorescence kinetics of membrane permeabilization, the bacterial suspension and peptide solutions, prepared in 5% tryptic soy broth (TSB) (v/v) in 0.85% NaCl solution (m/v), were mixed to give a final concentration at 10 µM in a black 96-well plate, and further incubated for 120 min at 37 °C. Subsequently, 5 µM SYTOX Green nucleic acid stain was added into each well and immediately detected by a fluorescent plate reader with excitation of 485 nm and emission of 528 nm. The total permeabilized cells of S. aureus were prepared by treating with 70% isopropanol and further resuspended in 5% TSB/0.85% NaCl solution after washing.

[1] = Circular dichroism, helix content by BeStSel; format: physicochemical; settings: CD, room temperature, BeStSel analysis
Experimental: Figure 8 CD spectra of TPF and the analogs (50 μM) prepared in 10 mM NH4AC, 50% TFE/10 mM NH4AC, 3 mM DPPG/DPPE (88:12) SUVs, and 3 mM DPPC SUVs. The spectra were averaged over three consecutive scans, and the solvent CD signal was subtracted.
The determination of the secondary structure of peptides was conducted using a JASCO J-815 CD Spectropolarimeter (JASCO Inc., Tokyo, Japan) as described in the previous study. Then, 50 μM of each peptide sample was prepared in the aqueous 10 mM ammonium acetate (NH4Ac; Sigma-Aldrich, Gillingham, UK) buffer, 50% (v/v) 2,2,2-trifluoroethanol (TFE; Sigma-Aldrich, Gillingham, UK), and 3 mM DPPG:DPPE (88:12) and DPPC small unilamellar liposomes/vesicles (SUVs) that were used to mimic the bacterial and mammalian erythrocyte cell membranes, respectively. The liposome was hydrated in deionized water and then sonicated for 15 min with an interval 30 s in an ice bath for generating SUVs. Samples were loaded in a 1-mm thickness quartz cuvette and analyzed at room temperature with the following parameters: scan range of 190–250 nm, scanning speed of […], 1 nm bandwidth, and 0.5 nm data pitch. The spectra were obtained by averaging data from three scans. The CD spectra were analyzed by BeStSel (http://bestsel.elte.hu/index.php, accessed on 16 May 2020) for the determination of secondary structure content.

S. aureus biofilm = format: cell-based; settings: biofilm, 24 h
Experimental: (§1) MBIC and MBEC assays were performed as previously described with minor modifications. For the MBIC assay, a suspension of broth diluted bacteria culture (5 × 10^5 CFU/mL) was incubated with the peptide solutions at 37 °C for 24 h. For MBEC assay, 100 μL inoculum culture was seeded to a 96-well-flat-bottom plate and incubated at 37 °C for 48 h to obtain the mature biofilm. Afterwards, the plate was washed by sterile phosphate-buffered saline (PBS; Sigma-Aldrich, Gillingham, UK) twice and treated with a series peptide solution at 37 °C for 24 h. Then, all the plates were washed with PBS and stained by 100 μL 0.1% crystal violet solution (Sigma-Aldrich, Gillingham, UK), and further dissolved by 30% acetic acid (Sigma-Aldrich, Gillingham, UK). The absorbance of each well was recorded by Synergy HT plate reader (Biotech, Minneapolis, MN, USA) at 595 nm.

MRSA mature biofilm = format: cell-based; settings: mature biofilm, 48 h
Experimental: as §1

S. aureus mature biofilm = format: cell-based; settings: mature biofilm, 48 h
Experimental: as §1

MRSA biofilm = format: cell-based; settings: biofilm, 24 h
Experimental: as §1

[2] = Observation of aggregation: turbidity (absorbance at 600 nm) in media and salt solutions; format: physicochemical; settings: peptide 1 mg/mL; 0.25, 0.5 and 1 M Na2HPO4, CaCl2 or MgCl2; absorbance 600 nm
Experimental: Figure 3 The absorbance of TPF and the analogs prepared in (a) a series of culture media, including PBS, RPMI1640, RPMI1640 with 10% FBS, TSB, and MHB; 0.25, 0.5, and 1 M of (b) Na2HPO4, (c) CaCl2, and (d) MgCl2 solutions. Peptide solutions were prepared from 1 mg/mL, and the wavelength was set as 600 nm. The error bar represents the standard deviation (SD) with three replicates.
The method was followed the previous study with modifications. The purified peptides were prepared at 10 mg/mL in water and subsequently diluted with different solutions, including PBS, RPMI1640, RPMI1640 with 10% FBS, TSB, MHB, Na2HPO4 (0.25, 0.5, and 1 M), CaCl2 (0.25, 0.5, and 1 M), and MgCl2 (0.25, 0.5, and 1 M), in a 96-well plate to achieve the final concentration of 1 mg/mL. The turbidity of each well was detected using the absorbance at 600 nm by a plate reader. The peptides dissolved in water were applied as negative control.

LPLIAGLFGKIF-NH2 [des-Phe1 TPF]
membrane permeabilization (S. aureus (NCTC 10788)): over 50%
Helix Content % DPPC ([1]; 50 μM peptide in 3 mM DPPC SUVs (erythrocyte membrane mimic)): 16.4%
Helix Content % DPPG/DPPE ([1]; 50 μM peptide in 3 mM DPPG/DPPE (88:12) SUVs (bacterial membrane mimic)): 26.7%
Helix Content % 50% TFE ([1]; 50 μM peptide in 50% TFE/10 mM NH4AC, three scans averaged): 37.7%
MBIC (S. aureus biofilm): 16 µM
MBEC (MRSA mature biofilm): 32/32 µM
MBEC (S. aureus mature biofilm): 32 µM
MBIC (MRSA biofilm): 32/32 µM
aggregation (salting-out) in salt solutions [2]: low degree of capability for aggregation
